Our source for the IC50 values is patent US9499553B2 (CHUGAI SEIYAKU KABUSHIKI KAISHA, priority 2013, dated 2016).

pIC50: −log10 of the molar value. Where a name gives a salt, the structure may show the parent alone.

For the first experiment, the target named is T1, human NaPi-IIb (Homo sapiens, UniProt O95436).
T1 construct: expressed in transfected cells
T1 sequence (O95436 1-690): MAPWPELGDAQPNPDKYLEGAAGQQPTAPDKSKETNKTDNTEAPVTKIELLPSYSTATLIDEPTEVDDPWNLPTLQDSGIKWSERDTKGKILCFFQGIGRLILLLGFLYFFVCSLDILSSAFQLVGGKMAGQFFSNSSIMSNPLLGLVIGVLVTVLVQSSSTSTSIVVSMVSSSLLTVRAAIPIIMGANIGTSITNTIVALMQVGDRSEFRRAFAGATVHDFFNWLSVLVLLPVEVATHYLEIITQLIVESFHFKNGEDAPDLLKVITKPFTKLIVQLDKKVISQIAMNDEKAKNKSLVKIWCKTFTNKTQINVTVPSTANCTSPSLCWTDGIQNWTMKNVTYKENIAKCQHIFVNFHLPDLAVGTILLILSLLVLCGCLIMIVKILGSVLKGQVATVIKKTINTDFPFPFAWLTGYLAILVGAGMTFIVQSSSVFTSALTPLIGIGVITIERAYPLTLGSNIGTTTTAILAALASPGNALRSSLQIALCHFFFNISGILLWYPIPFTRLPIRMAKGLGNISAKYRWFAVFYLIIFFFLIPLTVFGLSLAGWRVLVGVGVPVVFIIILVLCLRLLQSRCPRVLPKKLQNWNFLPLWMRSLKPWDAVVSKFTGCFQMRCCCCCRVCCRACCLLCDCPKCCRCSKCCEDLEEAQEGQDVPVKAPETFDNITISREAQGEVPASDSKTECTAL
The experiment is described as follows: Inhibitory effect on 33PO4 uptake into human NaPi-IIb-expressing CHO cells. The format is cell-based. The conditions noted are these: read-out: IC50. In outline: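 Stable human NaPi-IIb CHO line (G418-selected), plated and cultured overnight; ³³PO4 added in buffer A and uptake run at room temperature. Cells washed with ice-cold buffer A, then uptake counted by liquid scintillation.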
What is called pIC50 is the negative decadic logarithm of the IC50, by convention in mol/L. For `CC(C)[C@H]1C(O)=C(C(=O)Nc2ccc(C(F)(F)F)cc2-c2ccc(C(F)(F)F)nc2)C(=O)N(Cc2cccc(F)c2F)N1C` [Example 253], the pIC50 was 5.36.
As to `Cc1c(-c2cc(C(F)(F)F)ccc2NC(=O)C2=C(O)C3(CCCC3)N(C)N(Cc3ccc(OCCN4CCOCC4)c(F)c3F)C2=O)ncnc1C(F)(F)F` [Example 290], the pIC50 is 5.15.
As for `CSc1ccc(-c2cc(C(F)(F)F)ccc2NC(=O)C2=C(O)[C@H](C(C)(C)C)N(C)N(Cc3ccc(OCCN4CCOCC4)c(F)c3F)C2=O)cn1` [Example 268], the pIC50 is 5.13.
`C[C@]12CCCN1N(Cc1ccc(F)c(F)c1)C(=O)C(C(=O)Nc1ccc(C(F)(F)F)cc1-c1ccc(C(F)(F)F)nc1)=C2O` [Example 170]: the pIC50 is 5.66.
On the same count and under the same terms, the value for `COCCOCCOCCCCCCCCN1C(=O)C(C(=O)Nc2ccc(C(F)(F)F)cc2-c2cc(C(F)(F)F)ncn2)=C(O)[C@@]2(C)CCCN12` [Example 236] was 4.61; that for `COc1cccc(-c2cc(C(F)(F)F)ccc2NC(=O)C2=C(O)[C@@]3(C)CCCN3N(Cc3ccc(OCc4ccncc4)c(F)c3F)C2=O)c1OC` [Example 151, (4aR)-1-[[2,3-Difluoro-4-(pyridin-4-ylmethoxy)phenyl]methyl]-N-[2-(2,3-dimethoxyphenyl)-4-(trifluoromethyl)phenyl]-4-hydroxy-4a-methyl-2-oxo-6,7-dihydro-5H-pyrrolo[1,2-b]pyridazine-3-carboxamide] was 5.08.
Turning to `CN1N(Cc2cccc(F)c2F)C(=O)C(C(=O)Nc2ccc(C(F)(F)F)cc2-c2cc(C#N)ncn2)=C(O)C1(C)C` [Example 303], the pIC50 is 4.80.
The same measure, in the same setting: the value for `C[C@]12CCCN1N(Cc1cccc(F)c1F)C(=O)C(C(=O)Nc1ccc(C(F)(F)F)cc1-c1cncc(C#N)c1)=C2O` [Example 82] was 4.95; that for `C[C@]12CCCN1N(Cc1cccc(Cl)c1)C(=O)C(C(=O)Nc1ccc(C(F)(F)F)cc1-c1ccc(C(F)(F)F)nc1)=C2O` [Example 169] was 5.59; that for `Cc1c(C#N)ncnc1-c1cc(Cl)ccc1NC(=O)C1=C(O)[C@H](C(C)(C)C)N(C)N(Cc2ccc(OCCN3CCOCC3)c(F)c2F)C1=O` [Example 274] was 4.77.
As for `CSc1ccc(-c2cc(C(F)(F)F)ccc2NC(=O)C2=C(O)[C@@]3(C)CCCN3N(Cc3ccc(OCCCCOC[C@H](O)CO)c(F)c3F)C2=O)cn1` [Example 120, (4aR)-1-[[4-[4-[(2R)-2,3-Dihydroxypropoxy]butoxy]-2,3-difluorophenyl]methyl]-4-hydroxy-4a-methyl-N-[2-(6-methylsulfanylpyridin-3-v1)-4-(trifluoromethyl)phenyl]-2-oxo-6,7-dihydro-5H-pyrrolo[1,2-b]pyridazine-3-carboxamide], the negative logarithm of the IC50 (pIC50) was 4.69.
`C[C@]12CCCN1N(Cc1c(F)cc(C#CCCCCOC[C@H](O)CO)cc1F)C(=O)C(C(=O)Nc1ccc(C(F)(F)F)cc1-c1ccc(C(F)(F)F)nc1)=C2O` [Example 143]: the pIC50 is 5.17.
As to `C[C@]12CCCN1N(Cc1cccc(Cl)c1)C(=O)C(C(=O)Nc1ccc(C(F)(F)F)cc1-c1cc(C(F)(F)F)ncn1)=C2O` [Example 181], the negative-log IC50 (pIC50) is 5.32.
Take `C[C@]12CCCN1N(Cc1ccc(Br)cc1F)C(=O)C(C(=O)Nc1cc(F)c(Br)c(F)c1)=C2O` [Example 166, (4aR)—N-(4-Bromo-3,5-difluorophenyl)-1-[(4-bromo-2-fluorophenyl)methyl]-4-hydroxy-4a-methyl-2-oxo-6,7-dihydro-5H-pyrrolo[1,2-b]pyridazine-3-carboxamide]: the pIC50 is 4.98.
In the case of `C[C@]12CCCN1N(Cc1ccc(Cl)cc1)C(=O)C(C(=O)Nc1cc(F)c(Br)c(F)c1)=C2O` [Example 223], the pIC50 was 4.75.
The same measure, in the same setting: the value for `CN1N(Cc2ccc(OCCN3[C@@H]4COC[C@H]3C4)c(F)c2F)C(=O)C(C(=O)Nc2ccc(C(F)(F)F)cc2-c2cc(C(F)(F)F)ncn2)=C(O)C12CCC2` [Example 339] was 4.72.
Take `C[C@]12CCCN1N(Cc1cccc(F)c1F)C(=O)C(C(=O)Nc1ccc(Cl)cc1-c1ccc(C(F)(F)F)nc1)=C2O` [Example 86]: the pIC50 is 5.28.
Take `COC(=O)COc1ccc(CN2C(=O)C(C(=O)Nc3ccc(C(F)(F)F)cc3-c3ccc(C(F)(F)F)nc3)=C(O)[C@@]3(C)CCCN23)c(F)c1F` [Example 150]: the pIC50 is 5.05.
On to `Cc1nc(NC(=O)C2=C(O)C3(CCCC3)N(C)N(Cc3cccc(F)c3F)C2=O)ccc1Br` [Example 262], for which the pIC50 was 5.00.
In the case of `C[C@]12CCCN1N(Cc1ccccc1Cl)C(=O)C(C(=O)Nc1ccc(C(F)(F)F)cc1-c1cc(C(F)(F)F)ncn1)=C2O` [Example 180], the pIC50 is 5.24.
As for `CN1N(Cc2cccc(F)c2F)C(=O)C(C(=O)Nc2ccc(C(F)(F)F)cc2-c2cc(C(F)(F)F)ncn2)=C(O)C12CCCC2` [Example 260], the pIC50 is 5.19.
Same read-out and setting: the value for `C[C@]12CCCN1N(Cc1ccccc1C#N)C(=O)C(C(=O)Nc1cc(F)c(Br)c(F)c1)=C2O` [Example 218] was 5.14; that for `C[C@]12CCCN1N(Cc1ccc(OCCCCCO)c(F)c1F)C(=O)C(C(=O)Nc1ccc(C(F)(F)F)cc1-c1cc(C(F)(F)F)ncn1)=C2O` [Example 162] was 4.82; that for `C[C@]12CCCN1N(Cc1ccc(SCCN3CCOCC3)c(F)c1F)C(=O)C(C(=O)Nc1ccc(C(F)(F)F)cc1-c1ccc(C(F)(F)F)nc1)=C2O` [Example 163, (4aR)-1-[[2,3-Difluoro-4-(2-morpholin-4-ylethylsulfanyl)phenyl]methyl]-4-hydroxy-4a-methyl-2-oxo-N-[4-(trifluoromethyl)-2-[6-(trifluoromethyl)pyridin-3-yl]phenyl]-6,7-dihydro-5H-pyrrolo[1,2-b]pyridazine-3-carboxamide hydrochloride] was 5.17.
Turning to `C[C@]12CCCN1N(Cc1cccc(Cl)c1F)C(=O)C(C(=O)Nc1ccc(C(F)(F)F)cc1-c1cc(C(F)(F)F)ncn1)=C2O` [Example 209], the pIC50 is 5.32.

Staying with this experiment, now noted: read-out: IC50 against 33PO4 uptake into human NaPi-IIb-expressing cells.
Take `CN1N(Cc2ccc(OCCCCOC[C@H](O)CO)c(F)c2F)C(=O)C(C(=O)Nc2ccc(C(F)(F)F)cc2-c2ccc(C(F)(F)F)nc2)=C(O)C12CCC2` [Example 384]: the pIC50 is 4.96.
As to `CN1N(Cc2ccc(OCCN3CCN(CCOCCO)CC3)c(F)c2F)C(=O)C(C(=O)Nc2ccc(C(F)(F)F)cc2-c2cc(C(F)(F)F)ncn2)=C(O)C12CCCC2` [Example 378], the negative-log IC50 (pIC50) is 4.74.
With `CN1N(Cc2ccc(OCC3CCCO3)c(F)c2F)C(=O)C(C(=O)Nc2ccc(C(F)(F)F)cc2-c2cc(C(F)(F)F)ncn2)=C(O)C12CCCC2` (centres unmarked) [Example 413], the pIC50 is 4.95.
On to `COCCN(C)CCOCCOCCOc1ccc(CN2C(=O)C(C(=O)Nc3ccc(C(F)(F)F)cc3-c3cc(C(F)(F)F)ncn3)=C(O)C3(CCCC3)N2C)c(F)c1F` [Example 430], for which the pIC50 is 5.34.
For the molecule `CN1N(Cc2ccc(OCCCCOC[C@H](O)CO)c(F)c2F)C(=O)C(C(=O)Nc2ccc(C(F)(F)F)cc2-c2cc(C(F)(F)F)ncn2)=C(O)C12CCCC2` [Example 393], the pIC50 is 5.09.
For the molecule `COCCN1CCC[C@H]1COc1ccc(CN2C(=O)C(C(=O)Nc3ccc(C(F)(F)F)cc3-c3cc(C(F)(F)F)ncn3)=C(O)C3(CCC3)N2C)c(F)c1F` [Example 404, 6-[[2,3-Difluoro-4-[[(2S)-1-(2-methoxyethyl)pyrrolidin-2-yl]methoxy]phenyl]methyl]-9-hydroxy-5-methyl-7-oxo-N-[4-(trifluoromethyl)-2-[6-(trifluoromethyl)pyrimidin-4-yl]phenyl]-5,6-diazaspiro[3.5]non-8-ene-8-carboxamide], the pIC50 was 5.00.
`CN1N(Cc2ccc(OCCCCOCCO)c(F)c2F)C(=O)C(C(=O)Nc2ccc(C(F)(F)F)cc2-c2cc(C(F)(F)F)ncn2)=C(O)C12CCCC2` [Example 396]: the pIC50 was 5.02.
With `CN1N(Cc2ccc(OCCOCCNCC(O)CO)c(F)c2F)C(=O)C(C(=O)Nc2ccc(C(F)(F)F)cc2-c2cc(C(F)(F)F)ncn2)=C(O)C12CCCC2` (centres unmarked) [Example 419, 7-[[4-[2-[2-(2,3-Dihydroxypropylamino)ethoxy]ethoxy]-2,3-difluorophenyl]methyl]-10-hydroxy-6-methyl-8-oxo-N-[4-(trifluoromethyl)-2-[6-(trifluoromethyl)pyrimidin-4-yl]phenyl]-6,7-diazaspiro[4.5]dec-9-ene-9-carboxamide], the pIC50 is 4.61.
`COCC(C)(C)N(C)CCOc1ccc(CN2C(=O)C(C(=O)Nc3ccc(C(F)(F)F)cc3-c3cc(C(F)(F)F)ncn3)=C(O)C3(CCC3)N2C)c(F)c1F` [Example 349]: the pIC50 was 5.08.
`CN1N(Cc2ccc(OCCOCCOCCOCCC(=O)NCC(O)CO)c(F)c2F)C(=O)C(C(=O)Nc2ccc(C(F)(F)F)cc2-c2cc(C(F)(F)F)ncn2)=C(O)C12CCCC2` (centres unmarked) [Example 424]: the pIC50 was 4.54.
